Calls of active or inactive are those of the source. Rule as the data show it: actives have a measured IC50 and inactives only a lower limit.
target: Envelope glycoprotein gp160 (Human immunodeficiency virus 1, UniProt Q6QLK5); assay: cell-free HIV fusion peptide-binding blockers – biochemical, uHTS, fluorescence dequenching, […] (AID 1986)
Sequence (Q6QLK5 whole entry, the tested form may be a part): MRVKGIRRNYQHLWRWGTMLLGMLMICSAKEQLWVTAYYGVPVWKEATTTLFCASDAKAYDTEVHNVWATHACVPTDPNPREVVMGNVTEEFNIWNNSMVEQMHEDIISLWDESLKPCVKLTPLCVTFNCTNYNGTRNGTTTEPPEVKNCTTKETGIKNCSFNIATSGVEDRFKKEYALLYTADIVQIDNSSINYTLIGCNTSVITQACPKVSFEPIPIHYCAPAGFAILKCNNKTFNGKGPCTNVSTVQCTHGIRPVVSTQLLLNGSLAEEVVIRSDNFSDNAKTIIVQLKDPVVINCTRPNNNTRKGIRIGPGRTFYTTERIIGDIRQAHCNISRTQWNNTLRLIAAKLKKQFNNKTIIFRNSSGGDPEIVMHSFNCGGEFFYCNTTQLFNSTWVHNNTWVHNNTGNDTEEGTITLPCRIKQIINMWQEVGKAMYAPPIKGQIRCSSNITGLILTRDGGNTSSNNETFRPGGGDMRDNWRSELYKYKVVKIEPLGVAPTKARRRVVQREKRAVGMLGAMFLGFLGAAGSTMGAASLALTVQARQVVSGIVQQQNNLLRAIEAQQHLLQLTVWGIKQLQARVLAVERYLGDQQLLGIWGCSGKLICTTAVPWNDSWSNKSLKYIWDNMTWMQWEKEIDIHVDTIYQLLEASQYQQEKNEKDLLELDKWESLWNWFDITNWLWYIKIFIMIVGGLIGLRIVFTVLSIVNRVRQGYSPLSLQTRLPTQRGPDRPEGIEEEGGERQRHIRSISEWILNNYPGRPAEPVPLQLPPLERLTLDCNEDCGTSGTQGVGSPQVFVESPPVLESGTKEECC

SMILES	IC50
O=C(NCc1ccccc1)c1ccc2c(=O)[nH]c3c(C(=O)NCC4CCCO4)sc(=S)n3c2c1 (stereo not drawn)	24.5 µM (active)
O=C(O)C1Nc2c(O)cccc2C2C=CCC12 (stereo not drawn)	9.86 µM (active)
O=C(CN1C(=O)S/C(=C\C=C\c2ccccc2)C1=O)Nc1ccccc1C(=O)O	21.1 µM (active)
